Where a name gives a salt, the structure may show the parent alone.
Tests used:
Assay in all cases: MIC, NCCLS broth microdilution
Format in all cases: cell-based
Enterobacter cloacae P99 = settings: MIC of antibiotic compound 1 with the labelled bridged monobactam of formula II and clavulanate, 4 mg/L each
Acinetobacter sp. J2 = settings: Acinetobacter sp. J2; MIC of antibiotic compound 1 with the labelled bridged monobactam of formula II and clavulanate, 4 mg/L each
Procedure: Antimicrobial activity of the compounds and of their combinations was determined against a selection of organisms according to the standard procedures described by the National Committee for Clinical Laboratory Standards (National Committee for Clinical Laboratory. Standards (2000). Methods for Dilution Antimicrobial Susceptibility Tests for Bacteria That Grow Aerobically-Fifth Edition: Approved Standard M7-A5. NCCLS, Wayne, Pa., USA).
In all cases the final concentration of DMSO incubated with the bacteria is less than or equal to 1%. […] Plates were incubated overnight at an appropriate temperature (30° C. or 37° C.) and optical densities assessed by eye. The MIC value is defined as the lowest compound concentration completely inhibiting visible growth of the test organism. When combinations between compounds of formula I with compounds of formula II and are evaluated the compounds of formula I are tested in dilution series as described above while the compounds of formula II and III-XIII were present in all wells at a constant concentration of 4 μg/mL each.

[1] = system: Pseudomonas aeruginosa 1973E; settings: MIC of antibiotic compound 1 with the labelled bridged monobactam of formula II and clavulanate, 4 mg/L each
Outline: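 Broth microdilution following NCCLS M7-A5, with final DMSO ≤1%. Plates were incubated overnight at 30° C. or 37° C. and growth was read by eye; MIC is the lowest concentration giving complete inhibition of visible growth. In combination tests the formula I compound was serially diluted while partner compounds were held at 4 μg/mL each.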

[2] = system: Stenotrophomonas malthophilia 1AC736; settings: Stenotrophomonas malthophilia 1AC736; MIC of antibiotic compound 1 with the labelled bridged monobactam of formula II and clavulanate, 4 mg/L each
Serratia marcescens S6 = settings: MIC of antibiotic compound 1 with the labelled bridged monobactam of formula II and clavulanate, 4 mg/L each
[3] = system: Pseudomonas aeruginosa MK1184; settings: MIC of antibiotic compound 1 with the labelled bridged monobactam of formula II and clavulanate, 4 mg/L each
[4] = system: Klebsiella pneumoniae CF104; settings: MIC of antibiotic compound 1 with the labelled bridged monobactam of formula II and clavulanate, 4 mg/L each

Row | Structure (SMILES) | MIC of antibiotic at fixed inhibitor concentration (4 mg/L) (Enterobacter cloacae P99) | MIC of antibiotic at fixed inhibitor concentration (4 mg/L) (Acinetobacter sp. J2) | MIC of antibiotic at fixed inhibitor concentration (4 mg/L) [1] | MIC of antibiotic at fixed inhibitor concentration (4 mg/L) [2] | MIC of antibiotic at fixed inhibitor concentration (4 mg/L) (Serratia marcescens S6) | MIC of antibiotic at fixed inhibitor concentration (4 mg/L) [3] | MIC of antibiotic at fixed inhibitor concentration (4 mg/L) [4]
1 | COC(=O)c1ccc[n+](CC(=O)N2CC[C@@H]3[C@H]2C(=O)N3S(=O)(=O)[O-])c1 [Compound 116, (1S,5R)-2-{2-[3-(methoxycarbonyl)pyridinium]acetyl}-7-oxo-2,6-diazabicyclo[3.2.0]heptane-6-sulfonate, inner salt] | 32 µg/mL | 16 µg/mL | 16 µg/mL | 0.125 µg/mL | 0.25 µg/mL | 8 µg/mL | 0.5 µg/mL
2 | CCC(=O)c1cc[n+](CC(=O)N2CC[C@@H]3[C@H]2C(=O)N3S(=O)(=O)[O-])cc1 [Compound 117, (1S,5R)-7-oxo-2-[2-(4-propanoylpyridinium)acetyl]-2,6-diazabicyclo[3.2.0]heptane-6-sulfonate, inner salt] | 32 µg/mL | >32 µg/mL | 4 µg/mL | 0.25 µg/mL | 0.25 µg/mL | 16 µg/mL | 0.125 µg/mL
3 | NC(=S)c1cc[n+](CC(=O)N2CC[C@@H]3[C@H]2C(=O)N3S(=O)(=O)[O-])cc1 [Compound 118, (1S,5R)-2-{2-[4-(aminothioxomethyl)pyridinium]acetyl}-7-oxo-2,6-diazabicyclo[3.2.0]heptane-6-sulfonate, inner salt] | 32 µg/mL | >32 µg/mL | 4 µg/mL | 0.125 µg/mL | 0.25 µg/mL | 32 µg/mL | 0.125 µg/mL
4 | CCOC(=O)Cc1ccc[n+](CC(=O)N2CC[C@@H]3[C@H]2C(=O)N3S(=O)(=O)[O-])c1 [Compound 119, (1S,5R)-2-(2-{3-[(ethoxycarbonyl)methyl]pyridinium}acetyl)-7-oxo-2,6-diazabicyclo[3.2.0]heptane-6-sulfonate, inner salt] | >32 µg/mL | >32 µg/mL | 4 µg/mL | 0.125 µg/mL | 0.25 µg/mL | 32 µg/mL | 0.125 µg/mL
5 | O=C(C[n+]1cccc(C(F)(F)F)c1)N1CC[C@@H]2[C@H]1C(=O)N2S(=O)(=O)[O-] [Compound 120, (1S,5R)-7-oxo-2-{2-[3-(trifluoromethyl)pyridinium]acetyl}-2,6-diazabicyclo[3.2.0]heptane-6-sulfonate, inner salt] | 32 µg/mL | 32 µg/mL | 8 µg/mL | 0.125 µg/mL | 0.25 µg/mL | 16 µg/mL | 0.25 µg/mL
6 | Cc1cc[n+](CC(=O)N2CC[C@@H]3[C@H]2C(=O)N3S(=O)(=O)[O-])cc1C [Compound 121, (1S,5R)-2-[2-(3,4-dimethylpyridinium)acetyl]-7-oxo-2,6-diazabicyclo[3.2.0]heptane-6-sulfonate, inner salt] | 32 µg/mL | >32 µg/mL | 4 µg/mL | 0.25 µg/mL | 0.25 µg/mL | 16 µg/mL | 0.25 µg/mL
7 | O=C(N[C@H]1CCNC1)c1ccc[n+](CC(=O)N2CC[C@@H]3[C@H]2C(=O)N3S(=O)(=O)[O-])c1 [Compound 122, 2-(2-{3-[N-((3S)pyrrolidin-3-yl)carbamoyl]pyridinium}acetyl)(1S,5R)-7-oxo-2,6-diazabicyclo[3.2.0]heptane-6-sulfonate, inner salt] | 16 µg/mL | >32 µg/mL | 4 µg/mL | 0.125 µg/mL | 0.25 µg/mL | 16 µg/mL | 0.125 µg/mL
8 | O=C(C[n+]1cccc(Cc2ccccc2)c1)N1CC[C@@H]2[C@H]1C(=O)N2S(=O)(=O)[O-] [Compound 123, (1S,5R)-7-oxo-2-{2-[3-benzylpyridinium]acetyl}-2,6-diazabicyclo[3.2.0]heptane-6-sulfonate, inner salt] | 32 µg/mL | >32 µg/mL | 4 µg/mL | 0.125 µg/mL | 0.25 µg/mL | 32 µg/mL | 0.125 µg/mL
9 | O=C(C[n+]1cccc(-c2ccccc2)c1)N1CC[C@@H]2[C@H]1C(=O)N2S(=O)(=O)[O-] [Compound 124, (1S,5R)-7-oxo-2-[2-(3-phenylpyridinium)acetyl]-2,6-diazabicyclo[3.2.0]heptane-6-sulfonate, inner salt] | 32 µg/mL | >32 µg/mL | 8 µg/mL | 0.125 µg/mL | 0.25 µg/mL | 32 µg/mL | 0.125 µg/mL
10 | O=C(N[C@@H]1CCNC1)c1ccc[n+](CC(=O)N2CC[C@@H]3[C@H]2C(=O)N3S(=O)(=O)[O-])c1 [Compound 125, 2-(2-{3-[N-((3R)pyrrolidin-3-yl)carbamoyl]pyridinium}acetyl)(1S,5R)-7-oxo-2,6-diazabicyclo[3.2.0]heptane-6-sulfonate, inner salt] | 32 µg/mL | 4 µg/mL | 8 µg/mL | 0.125 µg/mL | 0.5 µg/mL | 16 µg/mL | <0.06 µg/mL
11 | NC(=O)c1c[n+](CC(=O)N2CC[C@@H]3[C@H]2C(=O)N3S(=O)(=O)[O-])ccc1N [Compound 126, (1S,5R)-2-[2-(4-amino-3-carbamoylpyridinium)acetyl]-7-oxo-2,6-diazabicyclo[3.2.0]heptane-6-sulfonate, inner salt] | 32 µg/mL | 2 µg/mL | 8 µg/mL | 0.125 µg/mL | 0.125 µg/mL | 16 µg/mL | >32 µg/mL
12 | O=C(CSc1nnnn1-c1ccccc1)N1CC[C@@H]2[C@H]1C(=O)N2S(=O)(=O)[O-].[Na+] [Compound 201] | 32 µg/mL | 4 µg/mL | 8 µg/mL | 0.125 µg/mL | 2 µg/mL | 32 µg/mL | >32 µg/mL

— US20160122320A1, “USEFUL COMBINATIONS OF MONOBACTAM ANTIBIOTICS WITH BETA-LACTAMASE INHIBITORS” (Basilea Pharmaceutica AG, priority 2005, published 2016)
